Columns and labels:
[1] = target: IDH1-R132C recombinant protein (Homo sapiens, UniProt O75874, R132C); assay: IDH1-R132C enzymatic assay (NADPH consumption, diaphorase/resazurin readout); format: biochemical; conditions: 10 nM IDH1-R132C, inhibition of NADPH consumption; read-out: Enzyme IDH1 R132C IC50
Procedure: (§1) IDH1-R132H and IDH1-R132C Enzymatic Assay
(§2) Assays were performed in a 384-well black plate. An aliquot of 250 nL of compound was incubated with 10 μL of 30 nM IDH1-R132H or 10 nM IDH1-R132C recombinant protein in assay buffer (50 mM Tris pH=7.5, 150 mM NaCl, 5 mM MgCl2, 0.1% (w/v) Bovine Serum Albumin, and 0.01% Triton X-100) in each well at 25° C. for 15 minutes. After the plate was centrifuged briefly, an aliquot of 10 μL of 2 mM α-ketoglutarate and 20 μM NADPH solution prepared in assay buffer was then added to each well and the reaction was maintained at 25° C. for 45 minutes. An aliquot of 10 μL of diaphorase solution (0.15 U/mL diaphorase and 30 μM Resazurin in assay buffer) was added to each well. The plate was maintained at 25° C. for 15 minutes and then read on a plate reader with excitation and emission wavelengths at 535 nm and 590 nm, respectively. The IC50 of a given compound was calculated by fitting the dose response curve of inhibition of NADPH consumption at a given concentration with the four parameter logistic equation.

[2] = target: T1, HCT116 isogenic IDH1-R132H mutant cells (Homo sapiens, UniProt O75874, R132H); assay: Cellular 2-HG assay using HCT116 mutant IDH1 cells (R132H); format: cell-based; conditions: cellular 2-HG inhibition, 24 hours, RapidFire mass spectrometry
T1 construct: HCT116 isogenic IDH1-R132H and IDH1-R132C mutant cells; endogenous in cells; host or cells: HCT116 isogenic IDH1-R132H mutant cells (kept under G418)
Procedure: (§3) Cellular 2-HG Assay Using HCT116 Mutant IDH1 Cells
(§4) HCT116 isogenic IDH1-R132H and IDH1-R132C mutant cells were cultured in growth media (McCoy's 5A, 10% fetal bovine serum, 1× antibiotic-antimycotic solution and 0.3 mg/mL G418) in 5% CO2 in an incubator at 37° C. To prepare the assay, cells were trypsinized and resuspended in assay media (McCoy's 5A with no L-glutamine, 10% fetal bovine serum, 1× antibiotic-antimycotic solution and 0.3 mg/mL G418). An aliquot of 10,000 cells/100 μL was transferred to each well of a clear 96-well tissue culture plate. The cells were incubated in 5% CO2 at 37° C. in an incubator overnight to allow for proper cell attachment. An aliquot of 50 μL of compound containing assay media were then added to each well and the assay plate was kept in 5% CO2 at 37° C. in an incubator for 24 hours. The media was then removed from each well and 150 μL of a methanol/water mixture (80/20 v/v) was added to each well. The plates were kept at −80° C. freezer overnight to allow for complete cell lysis. An aliquot of 125 μL of extracted supernatant was analyzed by RapidFire high-throughout-mass spectrometry (Agilent) to determine the cellular 2-HG level. The IC50 of a given compound was calculated by fitting the dose response curve of cellular 2-HG inhibition at a given concentration with the four parameter logistic equation

[3] = target: T2, HCT116 isogenic IDH1-R132C mutant cells (Homo sapiens, UniProt O75874, R132C); assay: Cellular 2-HG assay using HCT116 mutant IDH1 cells (R132C); format: cell-based; conditions: cellular 2-HG inhibition, 24 hours, RapidFire mass spectrometry
T2 construct: HCT116 isogenic IDH1-R132H and IDH1-R132C mutant cells; endogenous in cells; host or cells: HCT116 isogenic IDH1-R132C mutant cells (kept under G418)
Procedure: as §3, §4

[4] = target: IDH1-R132H recombinant protein (Homo sapiens, UniProt O75874, R132H); assay: IDH1-R132H enzymatic assay (NADPH consumption, diaphorase/resazurin readout); format: biochemical; conditions: 30 nM IDH1-R132H, inhibition of NADPH consumption; read-out: Enzyme IDH1 R132H IC50
Procedure: as §1, §2

Chain of IDH1-R132C recombinant protein (O75874 whole entry R132C): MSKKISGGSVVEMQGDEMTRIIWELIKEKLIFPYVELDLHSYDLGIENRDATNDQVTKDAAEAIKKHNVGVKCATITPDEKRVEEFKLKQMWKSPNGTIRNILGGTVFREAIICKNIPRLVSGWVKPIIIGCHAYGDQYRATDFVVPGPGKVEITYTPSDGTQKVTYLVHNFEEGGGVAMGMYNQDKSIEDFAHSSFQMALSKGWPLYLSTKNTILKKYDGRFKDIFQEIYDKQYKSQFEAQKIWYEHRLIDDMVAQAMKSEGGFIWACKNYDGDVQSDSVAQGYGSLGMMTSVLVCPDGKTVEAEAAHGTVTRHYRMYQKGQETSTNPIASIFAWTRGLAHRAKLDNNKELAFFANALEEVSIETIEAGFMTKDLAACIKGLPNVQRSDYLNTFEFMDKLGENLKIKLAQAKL
T1 sequence (O75874 2-414 R132H limits assumed): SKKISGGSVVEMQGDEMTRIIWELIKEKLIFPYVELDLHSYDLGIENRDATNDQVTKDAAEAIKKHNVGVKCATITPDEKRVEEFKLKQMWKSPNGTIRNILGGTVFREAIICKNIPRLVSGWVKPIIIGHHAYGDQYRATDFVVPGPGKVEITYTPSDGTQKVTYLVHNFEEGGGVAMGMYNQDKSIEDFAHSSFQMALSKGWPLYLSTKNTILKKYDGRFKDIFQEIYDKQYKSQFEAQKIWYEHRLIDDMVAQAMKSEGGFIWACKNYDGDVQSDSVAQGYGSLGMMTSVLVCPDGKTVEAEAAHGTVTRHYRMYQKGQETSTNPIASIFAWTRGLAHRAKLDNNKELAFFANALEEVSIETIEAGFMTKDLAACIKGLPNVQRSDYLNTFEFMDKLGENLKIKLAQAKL
T2 sequence (O75874 2-414 R132C limits assumed): as the sequence (O75874 2-414 R132H limits assumed) above, with H131C counted along it
Chain of IDH1-R132H recombinant protein (O75874 whole entry R132H): as the sequence (O75874 whole entry R132C) above, with C132H counted along it

| SMILES | IC50 [1] | IC50 [2] | IC50 [3] | IC50 [4] | melting point |
| --- | --- | --- | --- | --- | --- |
| COc1cc2[nH]c(=O)c(C(C)Nc3ncc(C#N)s3)cc2cc1Cl (stereo not drawn) [Compound I-2, 2-((1-(6-chloro-7-methoxy-2-oxo-1,2-dihydroquinolin-3-yl)ethyl)amino)thiazole-5-carbonitrile] | 0.1 to 1 µM | < 0.1 µM | 0.1 to 1 µM | < 0.1 µM |  |
| CC(Nc1ncc(C#N)s1)c1cc2cc(Cl)c(OCc3ccccn3)cc2[nH]c1=O (racemic) [Compound I-3, 2-((1-(6-chloro-2-oxo-7-(pyridin-2-ylmethoxy)-1,2-dihydroquinolin-3-yl)ethyl)amino)thiazole-5-carbonitrile] | 0.1 to 1 µM | 0.1 to 1 µM | < 0.1 µM | < 0.1 µM |  |
| CC(Nc1ncc(C#N)s1)c1cc2cc(Cl)cnc2[nH]c1=O (stereo not drawn) [Compound I-6, 2-((1-(6-chloro-2-oxo-1,2-dihydro-1,8-naphthyridin-3-yl)ethyl)amino)thiazole-5-carbonitrile] |  |  |  | 0.1 to 1 µM |  |
| C[C@@H](Nc1ncc(C#N)s1)c1cc2cc(Cl)c(OCc3ccccn3)cc2[nH]c1=O [Compound I-5, (R)-2-((1-(6-chloro-2-oxo-7-(pyridin-2-ylmethoxy)-1,2-dihydroquinolin-3-yl)ethyl)amino)thiazole-5-carbonitrile] | 1 to 10 µM |  |  | 0.1 to 1 µM |  |
| C[C@H](Nc1ncc(C#N)s1)c1cc2cc(Cl)c(OCc3ccccn3)cc2[nH]c1=O [Compound I-4, (S)-2-((1-(6-chloro-2-oxo-7-(pyridin-2-ylmethoxy)-1,2-dihydroquinolin-3-yl)ethyl)amino)thiazole-5-carbonitrile] | < 0.1 µM | < 0.1 µM | < 0.1 µM | < 0.1 µM |  |
| C[C@H](Nc1ncc(C(N)=O)s1)c1cc2cc(Cl)ccc2[nH]c1=O [Compound I-10, (S)-2-((1-(6-Chloro-2-oxo-1,2-dihydroquinolin-3-yl)ethyl)amino)thiazole-5-carboxamide] | 1 to 10 µM |  |  | 0.1 to 1 µM |  |
| C[C@H](Nc1ncc(C#N)s1)c1cc2cc(Cl)ccc2[nH]c1=O [Compound I-1, (S)-2-((1-(6-chloro-2-oxo-1,2-dihydroquinolin-3-yl)ethyl)amino)thiazole-5-carbonitrile] | 0.1 to 1 µM | 0.1 to 1 µM | 0.1 to 1 µM | < 0.1 µM | 211 to 213 °C (dec.) |

The next lines start with results.

| IC50 [1] | IC50 [2] | IC50 [3] | IC50 [4] | SMILES | melting point |
| --- | --- | --- | --- | --- | --- |
| 0.1 to 1 µM | < 0.1 µM | 0.1 to 1 µM | < 0.1 µM | Cc1nc(N[C@@H](C)c2cc3cc(Cl)ccc3[nH]c2=O)sc1C#N [Compound I-7, (S)-2-((1-(6-chloro-2-oxo-1,2-dihydroquinolin-3-yl)ethyl)amino)-4-methylthiazole-5-carbonitrile] |  |
|  |  |  | > 10 µM | COc1ccc2[nH]c(=O)c(CNc3nc4ccccc4s3)cc2c1 [Compound I-15, 3-{[(1,3-benzothiazol-2-yl)amino]methyl}-6-methoxy-1,2-dihydroquinolin-2-one] |  |
| > 10 µM |  |  | 1 to 10 µM | CC(=O)Nc1cnc(N[C@@H](C)c2cc3cc(Cl)ccc3[nH]c2=O)s1 [Compound I-8, (S)-N-(2-((1-(6-chloro-2-oxo-1,2-dihydroquinolin-3-yl)ethyl)amino)thiazol-5-yl)acetamide] |  |
|  |  |  | 1 to 10 µM | O=c1[nH]c2ccc(Cl)cc2cc1CNc1nc(-c2ccc(F)c(F)c2)cs1 [Compound I-14, 6-chloro-3-({[4-(3,4-difluorophenyl)-1,3-thiazol-2-yl]amino}methyl)-1,2-dihydroquinolin-2-one] |  |
| 0.1 to 1 µM | < 0.1 µM | 0.1 to 1 µM | < 0.1 µM | Cc1nc(N[C@@H](C)c2cc3cc(Cl)ccc3[nH]c2=O)sc1C(N)=O [Compound I-11, (S)-2-((1-(6-chloro-2-oxo-1,2-dihydroquinolin-3-yl)ethyl)amino)-4-methylthiazole-5-carboxamide] |  |
|  |  |  | > 10 µM | C[C@H](Nc1nsc(N2CCOC2=O)n1)c1cc2cc(Cl)ccc2[nH]c1=O [Compound I-12, 6-chloro-3-[(1S)-1-{[5-(2-oxo-1,3-oxazolidin-3-yl)-1,2,4-thiadiazol-3-yl]amino}ethyl]-1,2-dihydroquinolin-2-one] |  |
|  |  |  | > 10 µM | CCc1c(C)sc(NCc2cc3cc(Cl)ccc3[nH]c2=O)c1C#N [Compound I-16, 2-{[(6-chloro-2-oxo-1,2-dihydroquinolin-3-yl)methyl]amino}-4-ethyl-5-methylthiophene-3-carbonitrile] |  |
|  |  |  | 1 to 10 µM | O=c1[nH]c2ccc(Cl)cc2cc1CNc1nc(-c2ccccn2)cs1 [Compound I-13, 6-chloro-3-({[4-(pyridin-2-yl)-1,3-thiazol-2-yl]amino}methyl)-1,2-dihydroquinolin-2-one] |  |
|  |  |  | 1 to 10 µM | CCOC(=O)c1sc(N[C@@H](C)c2cc3cc(Cl)ccc3[nH]c2=O)nc1C [Compound I-9, (S)-ethyl 2-((1-(6-chloro-2-oxo-1,2-dihydroquinolin-3-yl)ethyl)amino)-4-methylthiazole-5-carboxylate] |  |
|  |  |  | > 10 µM | COc1ccc2[nH]c(=O)c(CNc3nc(C)c(C)s3)cc2c1 [Compound I-17, 3-{[(dimethyl-1,3-thiazol-2-yl)amino]methyl}-6-methoxy-1,2-dihydroquinolin-2-one] |  |
